Data as given in BindingDB's records for patent US11440923 (2022).

molecular target: T1, Induced myeloid leukemia cell differentiation protein Mcl-1 [K194A,K197A,R201A] (Homo sapiens, UniProt Q07820, K194A/K197A/R201A); assay: Protein-Protein Interaction Assay: MCL-1/Noxa BH3 Peptide (MCL-1 Assay)
T1 construct: gene MCL1
T1 sequence (Q07820 whole entry K194A/K197A/R201A, looked up): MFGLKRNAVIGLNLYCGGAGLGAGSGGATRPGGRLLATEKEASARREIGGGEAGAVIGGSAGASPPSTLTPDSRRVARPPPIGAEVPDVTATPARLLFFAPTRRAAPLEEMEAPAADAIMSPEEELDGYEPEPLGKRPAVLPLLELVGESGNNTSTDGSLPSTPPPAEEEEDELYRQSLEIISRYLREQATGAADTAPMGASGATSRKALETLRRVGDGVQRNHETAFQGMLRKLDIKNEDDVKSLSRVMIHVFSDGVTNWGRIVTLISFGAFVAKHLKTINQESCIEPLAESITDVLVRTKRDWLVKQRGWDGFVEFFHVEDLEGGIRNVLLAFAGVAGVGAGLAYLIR
Description: The dose-dependent inhibition by the compounds described in this invention of the interaction between MCL-1 and the BH3 domain of Noxa (both human) was determined using a steady state binding competition assay with time-resolved fluorescence energy transfer (TR-FRET) readout. […] The MBP-MCL-1 was purchased from Beryllium (Bedford, Mass., USA). […] The Noxa BH3-derived peptide can be obtained from e.g. Biosyntan (Berlin, Germany).

Row | Compound | IC50 [pM]
1 | CCc1c2c(nn1C)C(CCC1CCOCC1)OCCCCn1c(C(=O)O)c(CCCOc3cccc4cc(F)ccc34)c3ccc(Cl)c-2c31 (racemic) [US11440923, Example 60] | 690
2 | CCc1c2c(nn1C)C(CCN1CCOCC1)OCCCCn1c(C(=O)O)c(CCCOc3cccc4cc(F)ccc34)c3ccc(Cl)c-2c31 (single isomer, unassigned) [US11440923, Example 23] | 630
3 | Cc1c2c(nn1C)C(CCN1CCOCC1)OCCCCn1c(C(=O)O)c(CCCOc3cccc4cc(F)ccc34)c3ccc(Cl)c-2c31 (configuration not stated) [US11440923, Example 16] | 1200
4 | CCc1c2c(nn1C)C1CCCCN1CCCCn1c(C(=O)O)c(CCCOc3cccc4ccccc34)c3ccc(Cl)c-2c31 (racemic) [US11440923, Example 102] | 940
5 | CCc1c2c(nn1C)C(C(F)(F)F)OCCCCn1c(C(=O)O)c(CCCOc3cccc4ccccc34)c3ccc(Cl)c-2c31 (single isomer, unassigned; form 1) [US11440923, Example 33] | 2100
6 | CCc1c2c(nn1C)C(CCOC)OCCCCn1c(C(=O)O)c(CCCOc3cccc4cc(F)ccc34)c3ccc(Cl)c-2c31 (single isomer, unassigned; form 1) [US11440923, Example 42] | 330
7 | CCc1c2c(nn1C)C(CCC(C)(C)O)OCCCCn1c(C(=O)O)c(CCCOc3cccc4cc(F)ccc34)c3ccc(Cl)c-2c31 (single isomer, unassigned; form 2) [US11440923, Example 76] | 90000
8 | CCc1c2c(nn1C)C(CCN1CC(F)(F)C1)OCCCCn1c(C(=O)O)c(CCCOc3cccc4cc(F)ccc34)c3ccc(Cl)c-2c31 (single isomer, unassigned) [US11440923, Example 78] | 420
9 | CCc1c2c(nn1C)C(CCC1CCOCC1)OCCCCn1c(C(=O)O)c(CCCOc3cccc4cc(F)ccc34)c3ccc(Cl)c-2c31 (single isomer, unassigned) [US11440923, Example 63] | 880
10 | CCc1c2c(nn1C)[C@@H](CCN1CCOCC1)OCCCCn1c(C(=O)O)c(CCCOc3cccc4cc(F)ccc34)c3ccc(Cl)c-2c31 [US11440923, Example 48] | 3600
11 | CCC1OCCCCn2c(C(=O)O)c(CCCOc3cccc4ccccc34)c3ccc(Cl)c(c32)-c2c1nn(C)c2C (single isomer, unassigned; form 1) [US11440923, Example 29] | 1000
12 | Cc1c2c(nn1C)C(C1CC1)OCCCCn1c(C(=O)O)c(CCCOc3cccc4ccccc34)c3ccc(Cl)c-2c31 (single isomer, unassigned; form 1) [US11440923, Example 35] | 730
13 | Cc1c2c(nn1C)C(CCN1CCOCC1)OCCCCn1c(C(=O)O)c(CCCOc3cccc4cc(F)ccc34)c3ccc(F)c-2c31 (configuration not stated) [US11440923, Example 19] | 790
14 | CCC1OCCCCn2c(C(=O)O)c(CCCOc3cccc4ccccc34)c3ccc(Cl)c(c32)-c2c1nn(C)c2C (single isomer, unassigned; form 2) [US11440923, Example 30] | 200000
15 | CCc1c2c(nn1C)C(CC(C)(C)O)OCCCCn1c(C(=O)O)c(CCCOc3cccc4cc(F)ccc34)c3ccc(Cl)c-2c31 (single isomer, unassigned; form 2) [US11440923, Example 54] | 47000
16 | CCc1c2c(nn1C)C(CC(C)(C)O)OCCCCn1c(C(=O)O)c(CCCOc3cccc4cc(F)ccc34)c3ccc(Cl)c-2c31 (single isomer, unassigned; form 1) [US11440923, Example 53] | 410
17 | CCc1c2c(nn1C)C(C1CC1)OCCCCn1c(C(=O)O)c(CCCOc3cccc4cc(F)ccc34)c3ccc(Cl)c-2c31 (single isomer, unassigned; form 2) [US11440923, Example 40] | 48000
18 | CCc1c2c(nn1C)C(C1CC1)OCCCCn1c(C(=O)O)c(CCCOc3cccc4cc(F)ccc34)c3ccc(Cl)c-2c31 (single isomer, unassigned; form 1) [US11440923, Example 39] | 720
19 | CCc1c2c(nn1C)C(C(F)(F)F)OCCCCn1c(C(=O)O)c(CCCOc3cccc4ccccc34)c3ccc(Cl)c-2c31 (single isomer, unassigned; form 2) [US11440923, Example 34] | 370000
20 | CCc1c2c(nn1C)C(CCOC)OCCCCn1c(C(=O)O)c(CCCOc3cccc4cc(F)ccc34)c3ccc(Cl)c-2c31 (single isomer, unassigned; form 2) [US11440923, Example 43] | 88000
21 | CCc1c2c(nn1C)C(CCC(C)(C)O)OCCCCn1c(C(=O)O)c(CCCOc3cccc4cc(F)ccc34)c3ccc(Cl)c-2c31 (single isomer, unassigned; form 1) [US11440923, Example 75] | 370
22 | Cc1c2c(nn1C)C(C1CC1)OCCCCn1c(C(=O)O)c(CCCOc3cccc4ccccc34)c3ccc(Cl)c-2c31 (single isomer, unassigned; form 2) [US11440923, Example 36] | 280000
